Test results published in patent US10851097B2, “4,5,6,7-tetrahydro-1H-imidazo[4,5-c]pyridine and 1,4,5,6,7,8-hexahydroimidazo[4,5-d]azepine derivatives as janus kinase inhibitors” (Topivert Pharma Limited, priority 2015, dated 2020).
Values after ≈ are worked out from the molar mass of the structure shown. Read-outs that look alike come from different tables or passages of the source.

Experiments:
[1] = test system: CD3/IL2 stimulated PBMC cells; assay: IFNγ release from CD3/IL2 stimulated PBMC cells (assay (a)); type: cell-based; conditions: Homo sapiens, CD3/IL2 stimulation, 48 h, ELISA
Procedure: (a) IFNγ Release from CD3/IL2 Stimulated PBMC Cells
PBMCs from healthy subjects are separated from whole blood using a density gradient (Lymphoprep, Axis-Shield Healthcare). Cells are added to a 96 well plate, and compound at the desired concentration added 2 hours prior to stimulation with a mixture of monoclonal antibody to CD3 (1 μg/ml, eBioscience) and human recombinant IL2 (10 ng/ml, Peprotech). After 48 hours incubation under normal tissue culture conditions, supernatants are collected and IFNγ release determined by Sandwich ELISA (Duo-set, R&D System). The IC50 is determined from the dose response curve.

Jurkat cells = assay: Cell cytotoxicity assay in Jurkat cells (assay (c)); type: cell-based, human; conditions: 24 h, propidium iodide, normalised to DMSO control
Procedure: (c) Cell Cytotoxicity Assay
1×10^5 Jurkat cells (immortalised human T lymphocytes) are added to the appropriate number of wells of a 96 well plate in 100 μL of media (RPMI supplemented with 10% foetal bovine serum). 1 μL of DMSO control (final concentration 1.0% v/v) or test compound (final concentration 20, 5 or 1 μg/mL) is added to the wells and incubated at 37° C., 5% CO2. After 24 hours, the plate is centrifuged at 1200 rpm for 3 minutes and the supernatant discarded. Cells are then resuspended in 150 μL (final concentration 7.5 μg/mL) of propidium iodide (PI) in PBS and incubated at 37° C., 5% CO2 for 15 minutes. After 15 minutes, cells are analysed by flow cytometry (BD accuri) using the FL3 window. The % viability is calculated as the % of cells that are PI negative in the test wells normalised to the DMSO control.

[2] = Solubility in fasted-state simulated colonic fluid (FaSSCoF) at pH 6.5; type: physicochemical; conditions: 25 °C, pH 6.5, fassgf or other biorelevant, thermodynamic from solid, pH 6.5, 25° C.
Procedure: The solubilities of compounds of the invention in FaSSCoF at pH 6.5 are determined using a modification of a previously-reported procedure (Vertzoni, M., et al. Pharm. Res. 2010, 27, 2187-2196). In place of the bile salt extract employed in the original procedure (which extract is no longer available), the modified procedure uses a mixture of sodium taurochlorate (0.15 g), glycocholic acid (0.15 g), ursodeoxycholic acid (0.05 g), cholic acid (0.05 g), and glycodeoxycholic acid (0.05 g). These five bile acids are ground together with a mortar and pestle to produce a fine white powder that is incorporated into the FaSSCoF, as outlined below.
Tris(hydroxymethyl)aminomethane (Tris; 0.275 g) and maleic acid (0.44 g) are dissolved in water (35 mL) to give a solution whose pH is adjusted to 6.5 by treatment with 0.5M NaOH (ca. 12 mL). The solution is then made up to 50 mL with water. A portion of this Tris/maleate buffer solution (ca. 25 mL) is added to a 0.5 L round-bottomed flask, before being treated with 0.00565 g of the bile acid mixture described above. Solutions of phosphatidylcholine (0.0111 g) in DCM (0.15 mL) and palmitic acid (0.0013 g) in DCM (0.15 mL) are added, then the organic solvent is evaporated off under reduced pressure at 40° C. until a clear solution, with no perceptible DCM odour, is achieved. The volume of the evaporated solution is adjusted to 50 mL by addition of the remainder of Tris/maleate buffer, then BSA (0.115 g) is added, before being dissolved by gentle agitation.
Test compounds are suspended in the pH 6.5 FaSSCoF medium to give a maximum final concentration of 2-10 mg/mL. The suspensions are equilibrated at 25° C. for 24 h, before being filtered through a glass fibre C filter. The filtrates are then diluted as appropriate for injection and quantification by HPLC with reference to a standard. Different volumes of the standard, diluted and undiluted sample solutions are injected and the solubilities are calculated using the peak areas determined by integration of the peak found at the same retention time as the principal peak in the standard injection.

[3] = Run 1, read-out: pH 6.5 FaSSCoF Solubility Run 1
[4] = Run 2, read-out: pH 6.5 FaSSCoF Solubility Run 2

Q: With `CCc1cc(O)c(F)cc1-c1ccc2c(-c3nc4c([nH]3)CCN(C(=O)c3cnc(N(C)C5CCN(C)CC5)cn3)C4)n[nH]c2c1` [Example 1, (2-(6-(2-Ethyl-5-fluoro-4-hydroxyphenyl)-1H-indazol-3-yl)-1,4,6,7-tetrahydro-5H-imidazo[4,5-c]pyridin-5-yl)(5-(methyl(1-methylpiperidin-4-yl)amino)pyrazin-2-yl)methanone] as the compound, how does the IC50 [1] read?
A: 22.6 nM

Q: What about the “% viability at 1 μg/mL” value (Jurkat cells) of the same compound?
A: 14%

Q: And the solubility thermodynamic at 24 h [2, 3]?
A: 10 µg/mL (≈ 16.4 µM)

Q: What about the solubility thermodynamic at 24 h [2, 4] of the same compound?
A: 10 µg/mL (≈ 16.4 µM)

Q: With `CCc1cc(O)c(F)cc1-c1ccc2c(-c3nc4c([nH]3)CCN(C(=O)c3cnc(N5CC[S+]([O-])CC5)cn3)C4)n[nH]c2c1` [Example 2(e), (2-(6-(2-ethyl-5-fluoro-4-hydroxyphenyl)-1H-indazol-3-yl)-1,4,6,7-tetrahydro-5H-imidazo[4,5-c]pyridin-5-yl)(5-(1-oxildothiomorpholino)pyrazin-2-yl)methanone] as the compound, how does the IC50 [1] read?
A: 57.6 nM

Q: And the “% viability at 1 μg/mL” value (Jurkat cells)?
A: 96%

Q: With `CCc1cc(O)c(F)cc1-c1ccc2c(-c3nc4c([nH]3)CCN(C(=O)c3cnc(N5CCN(CCN(C)C)CC5)cn3)C4)n[nH]c2c1` [Example 2(f), (5-(4-(2-(dimethylamino)ethyl)piperazin-1-yl)pyrazin-2-yl)(2-(6-(2-ethyl-5-fluoro-4-hydroxyphenyl)-1H-indazol-3-yl)-1,4,6,7-tetrahydro-5H-imidazo[4,5-c]pyridin-5-yl)methanone] as the compound, how does the IC50 [1] read?
A: 49.3 nM

Q: And the “% viability at 1 μg/mL” value (Jurkat cells)?
A: 16%

Q: With `CCc1cc(O)c(F)cc1-c1ccc2c(-c3nc4c([nH]3)CCN(C(=O)c3cnc(N5CCC[C@H]5CO)cn3)C4)n[nH]c2c1` [Example 2(h), (S)-(2-(6-(2-ethyl-5-fluoro-4-hydroxyphenyl)-1H-indazol-3-yl)-1,4,6,7-tetrahydro-5H-imidazo[4,5-c]pyridin-5-yl)(5-(2-(hydroxymethyl)pyrrolidin-1-yl)pyrazin-2-yl)methanone] as the compound, how does the IC50 [1] read?
A: 12.1 nM

Q: What about the “% viability at 1 μg/mL” value (Jurkat cells) of the same compound?
A: 56%

Q: And the solubility thermodynamic at 24 h [2, 3]?
A: 30 µg/mL (≈ 51.5 µM)

Q: And the solubility thermodynamic at 24 h [2, 4]?
A: 40 µg/mL (≈ 68.7 µM)

Q: Which results are given for `CCc1cc(O)c(F)cc1-c1ccc2c(-c3nc4c([nH]3)CCN(C(=O)c3cnc(N(CCOC)CCOC)cn3)C4)n[nH]c2c1` [Example 2(i), (5-(bis(2-methoxyethyl)amino)pyrazin-2-yl)(2-(6-(2-ethyl-5-fluoro-4-hydroxyphenyl)-1H-indazol-3-yl)-1,4,6,7-tetrahydro-5H-imidazo[4,5-c]pyridin-5-yl)methanone]?
A: IC50 [1]: 14.5 nM; % viability at 1 μg/mL (Jurkat cells): 53%

Q: What does the source list for `CCc1cc(O)c(F)cc1-c1ccc2c(-c3nc4c([nH]3)CCN(C(=O)c3cnc(N5CCN(CCn6ccnc6)CC5)cn3)C4)n[nH]c2c1` [Example 2(j), (5-(4-(2-(1H-imidazol-1-yl)ethyl)piperazin-1-yl)pyrazin-2-yl)(2-(6-(2-ethyl-5-fluoro-4-hydroxyphenyl)-1H-indazol-3-yl)-1,4,6,7-tetrahydro-5H-imidazo[4,5-c]pyridin-5-yl)methanone]?
A: IC50 [1]: 5.3 nM; % viability at 1 μg/mL (Jurkat cells): 12%

Q: What does the source list for `CCc1cc(O)c(F)cc1-c1ccc2c(-c3nc4c([nH]3)CCN(C(=O)c3cnc(N5CCN(CCO)CC5)cn3)C4)n[nH]c2c1` [Example 2(l), (2-(6-(2-ethyl-5-fluoro-4-hydroxyphenyl)-1H-indazol-3-yl)-6,7-dihydro-1H-imidazo[4,5-c]pyridin-5(4H)-yl)(5-(4-(2-hydroxyethyl)piperazin-1-yl)pyrazin-2-yl)methanone]?
A: IC50 [1]: 9.4 nM; % viability at 1 μg/mL (Jurkat cells): 10%

Q: Which IC50 [1] does the source give for `CCc1cc(O)c(F)cc1-c1ccc2c(-c3nc4c([nH]3)CCN(C(=O)c3cnc(NCCOCCOCCOC)cn3)C4)n[nH]c2c1` [Example 2(m), (2-(6-(2-ethyl-5-fluoro-4-hydroxyphenyl)-1H-indazol-3-yl)-6,7-dihydro-1H-imidazo[4,5-c]pyridin-5(4H)-yl)(5-((2-(2-(2-methoxyethoxy)ethoxy)ethyl)amino)pyrazin-2-yl)methanone] here?
A: 15.2 nM

Q: And the “% viability at 1 μg/mL” value (Jurkat cells)?
A: 88%

Q: What does the source list for `CCc1cc(O)c(F)cc1-c1ccc2c(-c3nc4c([nH]3)CCN(C(=O)c3cnc(N(C)CCN(C)C(C)=O)cn3)C4)n[nH]c2c1` [Example 2(n), N-(2-((5-(2-(6-(2-ethyl-5-fluoro-4-hydroxyphenyl)-1H-indazol-3-yl)-4,5,6,7-tetrahydro-1H-imidazo[4,5-c]pyridine-5-carbonyl)pyrazin-2-yl)(methy)amino)ethyl)-N-methylacetamide]?
A: IC50 [1]: 29.2 nM; % viability at 1 μg/mL (Jurkat cells): 87%

Q: Which IC50 [1] does the source give for `CCc1cc(O)c(F)cc1-c1ccc2c(-c3nc4c([nH]3)CCN(C(=O)c3cnc(N5CC(CO)C5)cn3)C4)n[nH]c2c1` [Example 2(o), (2-(6-(2-ethyl-5-fluoro-4-hydroxyphenyl)-1H-indazol-3-yl)-6,7-dihydro-1H-imidazo[4,5-c]pyridin-5(4H)-yl)(5-(3-(hydroxymethyl)azetidin-1-yl)pyrazin-2-yl)methanone] here?
A: 22.5 nM

Q: And the “% viability at 1 μg/mL” value (Jurkat cells)?
A: 62%

Q: Which results are given for `CCc1cc(O)c(F)cc1-c1ccc2c(-c3nc4c([nH]3)CCN(C(=O)c3cnc(NCCS(C)(=O)=O)cn3)C4)n[nH]c2c1` [Example 2(q), (2-(6-(2-ethyl-5-fluoro-4-hydroxyphenyl)-1H-indazol-3-yl)-6,7-dihydro-1H-imidazo[4,5-c]pyridin-5(4H)-yl)(5-((2-(methylsulfonyl)ethyl)amino)pyrazin-2-yl)methanone]?
A: IC50 [1]: 113 nM; % viability at 1 μg/mL (Jurkat cells): 94%

Q: For `CCc1cc(O)c(F)cc1-c1ccc2c(-c3nc4c([nH]3)CCN(C(=O)c3cnc(N5C[C@H]6CN(C)C[C@H]6C5)cn3)C4)n[nH]c2c1` [Example 2(t), (2-(6-(2-ethyl-5-fluoro-4-hydroxyphenyl)-1H-indazol-3-yl)-6,7-dihydro-1H-imidazo[4,5-c]pyridin-5(4H)-yl)(5-((3aR,6aS)-5-methylhexahydropyrrolo[3,4-c]pyrrol-2(1H)-yl)pyrazin-2-yl)methanone], which IC50 [1] is on record?
A: 15.2 nM

Q: And the “% viability at 1 μg/mL” value (Jurkat cells)?
A: 18%

Q: With `CCc1cc(O)c(F)cc1-c1ccc2c(-c3nc4c([nH]3)CCN(C(=O)c3cnc(N(C)CCN5CCCS5(=O)=O)cn3)C4)n[nH]c2c1` [Example 2(v), (5-((2-(1,1-dioxidoisothiazolidin-2-yl)ethyl)(methyl)amino)pyrazin-2-yl)(2-(6-(2-ethyl-5-fluoro-4-hydroxyphenyl)-1H-indazol-3-yl)-6,7-dihydro-1H-imidazo[4,5-c]pyridin-5(4H)-yl)methanone] as the compound, how does the IC50 [1] read?
A: 7.5 nM

Q: What about the “% viability at 1 μg/mL” value (Jurkat cells) of the same compound?
A: 82%

Q: For `CCc1cc(O)c(F)cc1-c1ccc2c(-c3nc4c([nH]3)CCN(C(=O)c3cnc(N5C[C@@H]6C(=O)NC(=O)[C@@H]6C5)cn3)C4)n[nH]c2c1` [Example 2(w), (3aR,6aS)-5-(5-(2-(6-(2-ethyl-5-fluoro-4-hydroxyphenyl)-1H-indazol-3-yl)-4,5,6,7-tetrahydro-1H-imidazo[4,5-c]pyridine-5-carbonyl)pyrazin-2-yl)tetrahydropyrrolo[3,4-c]pyrrole-1,3(2H,3aH)-dione], which IC50 [1] is on record?
A: 942 nM
